Laboratory results taken from patent publication US20110092703A1, “P2X4 RECEPTOR ANTAGONIST” (NIPPON CHEMIPHAR CO., LTD., priority 2007, published 2011).
Where a name gives a salt, the structure may show the parent alone.

Experiments:
P2X4 receptor [1] = target: T1, P2X4 receptor (Homo sapiens, UniProt Q99571); assay: P2X4 antagonism study by measurement of intracellular Ca2+ influx response; type: cell-based; design: expressed in transfected cells; conditions: 1321N1 cells stably expressing human P2X4; 1 μM ATP; compound 15 min before ATP; Fura-2 F340/F380; read-out: Inhibitory activity: IC50
T1 sequence (Q99571 1-388): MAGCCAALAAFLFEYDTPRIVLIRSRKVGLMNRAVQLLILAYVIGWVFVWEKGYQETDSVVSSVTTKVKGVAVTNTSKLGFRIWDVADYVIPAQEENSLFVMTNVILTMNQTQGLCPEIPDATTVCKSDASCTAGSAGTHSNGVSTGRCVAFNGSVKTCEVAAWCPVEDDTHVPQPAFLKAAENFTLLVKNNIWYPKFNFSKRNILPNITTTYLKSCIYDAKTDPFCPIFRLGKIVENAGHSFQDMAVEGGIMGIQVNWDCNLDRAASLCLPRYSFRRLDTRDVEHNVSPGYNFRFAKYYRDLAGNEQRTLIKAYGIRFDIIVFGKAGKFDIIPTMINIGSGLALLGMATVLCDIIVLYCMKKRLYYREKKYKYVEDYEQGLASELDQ
Protocol: (§1) 1321N1 cells stably expressing human P2X4 receptors were adopted for calcium influx assay. P2X4/1321N1 cells were plated in 96-well assay plate and cultured 24 hours in an atmosphere of 5% CO2 at 37° C. Fura-2 AM calcium indicator in assay buffer (150 mM NaCl, 5 mM KCl, 1.8 mM CaCl2, 1.2 mM MgCl2, 10 mM D-glucose and 25 mM HEPES, pH 7.4) was loaded onto cells for 1 hour at room temperature and the fluorescence was detected by FLUOstar Optima micro plate reader (BMG labtech). The cells were alternatively illuminated with two excitations wavelengths (340 nm and 380 nm) via xenon lamp and the emitted fluorescence was measured at 510 nm. The fluorescence changes after the treatment of 1 μM ATP were monitored and determined the fluorescence ratio (F340/F380) as the index of intracellular calcium change. Tested compound were treated to cells 15 min before the addition of ATP and the inhibition activity of compounds was calculated by comparing the Ca^2+ response with control in the absence of tested compound.
as §1, with “pH7.4)” for “pH 7.4)”

serotonin reuptake = target: T2, serotonin reuptake (Rattus norvegicus, UniProt P31652); assay: Serotonin reuptake inhibition assay ([3H]serotonin, synaptosomes prepared from the rat brain); type: biochemical; conditions: 10^−7 M compound, 15 min at 37° C., read-out: Percent inhibition (10^−7 M)
T2 construct: synaptosomes prepared from the rat brain; from tissue; host or cells: rat brain synaptosomes
T2 sequence (P31652 whole entry): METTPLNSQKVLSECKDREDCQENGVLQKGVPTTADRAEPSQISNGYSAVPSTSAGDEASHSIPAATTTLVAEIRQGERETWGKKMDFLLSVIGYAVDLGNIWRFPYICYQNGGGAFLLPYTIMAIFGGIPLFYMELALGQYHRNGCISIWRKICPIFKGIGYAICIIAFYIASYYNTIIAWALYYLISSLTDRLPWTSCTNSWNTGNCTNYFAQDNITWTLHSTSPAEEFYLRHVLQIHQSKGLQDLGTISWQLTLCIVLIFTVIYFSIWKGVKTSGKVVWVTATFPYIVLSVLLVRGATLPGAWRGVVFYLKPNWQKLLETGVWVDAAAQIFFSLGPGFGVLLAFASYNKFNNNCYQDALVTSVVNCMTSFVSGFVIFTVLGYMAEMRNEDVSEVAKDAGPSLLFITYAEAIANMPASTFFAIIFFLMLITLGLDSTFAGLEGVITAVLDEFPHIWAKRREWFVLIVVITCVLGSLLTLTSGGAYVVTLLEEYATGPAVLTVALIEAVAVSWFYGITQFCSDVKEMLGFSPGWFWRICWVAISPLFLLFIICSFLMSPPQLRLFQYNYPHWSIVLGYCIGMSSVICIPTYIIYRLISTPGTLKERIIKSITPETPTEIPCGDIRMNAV
Protocol: 100 μg of the synaptosomes prepared from the rat brain were incubated for 15 min at 37° C. with 0.1 μCi [^3H]serotonin in the presence of tested compound in a buffer containing 106.2 mM NaCl, 4.5 mM KCl, 2.25 mM MgSO4, 1.08 mM NaH2PO4, 22.5 mM NaHCO3, 9.9 mM glucose, 9 μM EGTA and 45 μM ascorbic acid (pH 7.4). Basal control activity was determined by incubating the same mixture for 15 min at 4′C in the presence of 10 μM imipramine. Following incubation, the samples were filtered rapidly under vacuum through GF/B glass fiber filters and rinsed twice with ice-cold incubation buffer using a cell harvester. The retained radioactivity on filters was measured in TopCount scintillation counter. The results were expressed as a percent inhibition of the specific binding in the absence of tested compound.
100 μg of the synaptosomes prepared from the rat brain were incubated for 15 min at 37° C. with 0.1 μCi [^3H]serotonin in the presence of tested compound in a buffer containing 106.2 mM NaCl, 4.5 mM KCl, 2.25 mM MgSO4, 1.08 mm NaH2PO4, 22.5 mM NaHCO3, 9.9 mM glucose, 9 μM EGTA and 45 μM ascorbic acid (pH 7.4). Basal control activity was determined by incubating the same mixture for 15 min at 4° C. in the presence of 10 μM imipramine. […] The retained radioactivity on filters was measured in TopCount scintillation counter. […]

[2] = target: T3, human Serotonin transporter (Homo sapiens, UniProt P31645); assay: [3H]paroxetine binding to serotonin transporter; conditions: read-out: Percent inhibition (10^−7 M)
T3 construct: expressed in transfected cells; cell membranes
T3 sequence (P31645 whole entry): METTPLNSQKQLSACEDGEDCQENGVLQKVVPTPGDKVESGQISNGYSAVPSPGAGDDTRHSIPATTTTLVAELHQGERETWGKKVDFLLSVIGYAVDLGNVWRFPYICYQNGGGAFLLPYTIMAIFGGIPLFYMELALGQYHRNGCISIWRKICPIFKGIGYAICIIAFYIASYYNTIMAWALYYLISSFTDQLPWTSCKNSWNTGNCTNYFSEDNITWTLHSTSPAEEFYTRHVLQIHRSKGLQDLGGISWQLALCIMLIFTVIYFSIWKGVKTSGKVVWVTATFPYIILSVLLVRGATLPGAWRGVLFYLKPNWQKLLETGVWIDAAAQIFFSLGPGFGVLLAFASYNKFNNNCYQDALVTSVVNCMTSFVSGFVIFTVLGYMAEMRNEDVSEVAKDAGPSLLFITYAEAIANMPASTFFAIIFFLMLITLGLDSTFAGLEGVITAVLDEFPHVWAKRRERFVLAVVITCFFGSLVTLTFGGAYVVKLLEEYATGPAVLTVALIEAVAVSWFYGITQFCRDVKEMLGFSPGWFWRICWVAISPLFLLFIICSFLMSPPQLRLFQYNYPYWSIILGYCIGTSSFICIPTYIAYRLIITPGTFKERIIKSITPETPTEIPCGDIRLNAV
Protocol: After incubation for 60 min at 25° C., the reaction was terminated by rapid filtration through GF/B glass fiber filter and rinsed with ice-cold incubation buffer. The retained radioactivity on filter was measured by a liquid scintillation counter. Nonspecific binding was defined with 10 μM imipramine and subtracted from total binding to determine specific binding. Inhibition activities of tested compounds were determined as a percent inhibition of the specific binding.

P2X4 receptor [3] = target: T1, P2X4 receptor; conditions: disclosed in WO 2007/049825 / Abstract P3-N-114; cited from earlier work

Compound | IC50 (P2X4 receptor [1]) | inhibition at 0.1 µM [2] | other results
CC(C)c1ccc(N2CCNCC2CSc2ccc(Cl)cc2)cc1 (centres unmarked) [Example 17, 2-(4-Chlorophenylsulfanylmethyl)-1-(4-isopropylphenyl)piperazine hydrochloride] | 8.1 µM |  | inhibition at 0.1 µM (serotonin reuptake): 4%
Cc1cc(C)c(N2CCNCC2COc2ccc(Cl)cc2)c(C)c1 (centres unmarked) [Example 7, 2-(4-Chlorophenoxymethyl)-1-(2,4,6-trimethylphenyl)piperazine hydrochloride] | 3.1 µM | 26% | 
CN(C)CCCN1c2ccccc2CCc2ccccc21 [imipramine] |  |  | P2X4 receptor antagonism (in words) (P2X4 receptor [3]): shows P2X4 receptor antagonism
CC(C)c1ccc(N2CCNCC2COc2ccc(Cl)cc2)cc1 (centres unmarked) [Example 1, 2-(4-Chlorophenoxymethyl)-1-(4-isopropylphenyl)piperazine hydrochloride] | 6.9 µM | 17% | 
CC(C)c1cccc(N2CCNCC2COc2ccc(Cl)cc2)c1 (centres unmarked) [Example 3, 2-(4-Chlorophenoxymethyl)-1-(3-isopropylphenyl)piperazine hydrochloride] | 8.3 µM | 13% | 
Cc1cccc(C)c1N1CCNCC1COc1ccc(Cl)cc1.Cl (centres unmarked) |  |  | melting point: 97 to 100 °C
CC(C)c1ccc(N2CCNCC2COc2ccc3c(c2)OCO3)cc1 (centres unmarked) [Example 11, 1-(4-Isopropylphenyl)-2-(3,4-methylenedioxyphenoxymethyl)piperazine hydrochloride] | 7.4 µM |  | 
CC(C)NS(=O)(=O)c1ccc(OCC2CNCCN2c2ccc(C(C)C)cc2)cc1 (centres unmarked) [Example 16, 1-(4-Isopropylphenyl)-2-[4-(isopropylsulfamoyl)phenoxymethyl]piperazine hydrochloride] | 2.8 µM |  | inhibition at 0.1 µM (serotonin reuptake): 11%
CC(C)c1ccc(N2CCNCC2COc2ccc(S(N)(=O)=O)cc2)cc1 (centres unmarked) [Example 15, 1-(4-Isopropylphenyl)-2-(4-sulfamoylphenoxymethyl)piperazine hydrochloride] | 6.3 µM |  | 
CC(C)c1cccc(N2CCNCC2COc2ccc(OC(C)(C)C)cc2)c1 (centres unmarked) [Example 13, 2-(4-tert-Butoxyphenoxymethyl)-1-(3-isopropylphenyl)piperazine hydrochloride] | 2.9 µM |  | 
CCCc1ccc(N2CCNCC2COc2ccc(Cl)cc2)cc1 (centres unmarked) [Example 2, 2-(4-Chlorophenoxymethyl)-1-(4-propylphenyl)piperazine hydrochloride] | 7.6 µM | 31% | 
Clc1ccc(OCC2CNCCN2c2ccc3c(c2)CCC3)cc1 (centres unmarked) [Example 10, 2-(4-Chlorophenoxymethyl)-1-indan-5-yl-piperazine hydrochloride] | 4.7 µM | 44% | 
Fc1ccc([C@@H]2CCNC[C@H]2COc2ccc3c(c2)OCO3)cc1 [Paroxetine] |  |  | P2X4 receptor antagonism (in words) (P2X4 receptor [3]): shows P2X4 receptor antagonism
